# Assay results: patent publication US5892063A (Hauser, Inc., priority 1997, dated 1999)
# Read-outs that look alike come from different tables or passages of the source.
# Assays:
# HCT-15 = assay: SRB growth screen, colon cancer HCT-15; conditions: Homo sapiens, HCT-15, 48 h; for GI50: read-out: Log10 GI50 (converted); for CC50: read-out: Log10 LC50 (converted); for IC (TGI): read-out: Log10 TGI
# SR = assay: SRB growth screen, leukemia SR; conditions: Homo sapiens, 48 h; for CC50: read-out: Log10 LC50 (converted)
# SN12C = assay: SRB growth screen, renal cancer SN12C; conditions: Homo sapiens, 48 h; for CC50: read-out: Log10 LC50 (converted); for IC (TGI): read-out: Log10 TGI
# PC-3 = assay: SRB growth screen, prostate cancer PC-3; conditions: Homo sapiens, PC-3, 48 h; for CC50: read-out: Log10 LC50 (converted); for IC (TGI): read-out: Log10 TGI
# TK-10 = assay: SRB growth screen, renal cancer TK-10; conditions: Homo sapiens, TK-10, 48 h; for CC50: read-out: Log10 LC50 (converted); for IC (TGI): read-out: Log10 TGI
# SNB-19 = assay: SRB growth screen, CNS cancer SNB-19; conditions: Homo sapiens, SNB-19, 48 h; for CC50: read-out: Log10 LC50 (converted); for IC (TGI): read-out: Log10 TGI
# K-562 = assay: SRB growth screen, leukemia K-562; conditions: Homo sapiens, K562, 48 h; for CC50: read-out: Log10 LC50 (converted); for IC (TGI): read-out: Log10 TGI
# HOP-62 = conditions: Homo sapiens, HOP-62, 48 h; for CC50: read-out: Log10 LC50 (converted)
# OVCAR-5 = assay: SRB growth screen, ovarian cancer OVCAR-5; conditions: Homo sapiens, OVCAR-5, 48 h; for CC50: read-out: Log10 LC50 (converted); for IC (TGI): read-out: Log10 TGI
# DU-145 = assay: SRB growth screen, prostate cancer DU-145; conditions: Homo sapiens, DU-145, 48 h; for CC50: read-out: Log10 LC50 (converted); for IC (TGI): read-out: Log10 TGI
# RPMI-8226 = assay: SRB growth screen, leukemia RPMI-8226; conditions: Homo sapiens, RPMI-8226, 48 h; for CC50: read-out: Log10 LC50 (converted)
# MALME-3M = assay: SRB growth screen, melanoma MALME-3M; conditions: Homo sapiens, 48 h; for CC50: read-out: Log10 LC50 (converted); for IC (TGI): read-out: Log10 TGI
# OVCAR-8 = assay: SRB growth screen, ovarian cancer OVCAR-8; conditions: Homo sapiens, OVCAR-8, 48 h; for CC50: read-out: Log10 LC50 (converted)
# MDA-N = assay: SRB growth screen, breast cancer MDA-N; conditions: Homo sapiens, 48 h; for GI50: read-out: Log10 GI50 (converted)
# CCRF-CEM = assay: SRB growth screen, leukemia CCRF-CEM; conditions: Homo sapiens
# SF-539 = assay: SRB growth screen, CNS cancer SF-539; conditions: Homo sapiens, SF-539, 48 h; for CC50: read-out: Log10 LC50 (converted)
# A498 = assay: SRB growth screen, renal cancer A498; conditions: Homo sapiens, A498, 48 h; for CC50: read-out: Log10 LC50 (converted)
# MCF7/ADR-RES = assay: SRB growth screen, breast cancer MCF7/ADR-RES; conditions: Homo sapiens, 48 h; for CC50: read-out: Log10 LC50 (converted); for IC (TGI): read-out: Log10 TGI
# MDA-MB-435 = assay: SRB growth screen, breast cancer MDA-MB-435; type: cell-based
# UACC-62 = assay: SRB growth screen, melanoma UACC-62; conditions: Homo sapiens, UACC-62, 48 h; for CC50: read-out: Log10 LC50 (converted)
# UACC-257 = assay: SRB growth screen, melanoma UACC-257; conditions: Homo sapiens, UACC-257, 48 h; for CC50: read-out: Log10 LC50 (converted); for IC (TGI): read-out: Log10 TGI
# COLO 205 = assay: SRB growth screen, colon cancer COLO 205; conditions: Homo sapiens, COLO 205, 48 h; for CC50: read-out: Log10 LC50 (converted)
# BT-549 = assay: SRB growth screen, breast cancer BT-549; conditions: Homo sapiens, BT-549, 48 h; for GI50: read-out: Log10 GI50 (converted); for CC50: read-out: Log10 LC50 (converted); for IC (TGI): read-out: Log10 TGI
# KM12 = assay: SRB growth screen, colon cancer KM12; conditions: Homo sapiens, KM12, 48 h
# IGROV1 = assay: SRB growth screen, ovarian cancer IGROV1; conditions: Homo sapiens, IGROV-1, 48 h; for CC50: read-out: Log10 LC50 (converted)
# [1] = read-out: Log10 GI50 (converted)
# [2] = read-out: Log10 LC50 (converted)
# [3] = 48 h, read-out: Log10 LC50 (converted)
# [4] = read-out: concentration considered cytostasis (percentage growth 0)
# [5] = read-out: concentration necessary to achieve primary growth inhibition (PG +50)
# [6] = read-out: cytotoxicity concentration (percentage growth -50)
smiles,measurement,setting,value
"CC(=O)O[C@H]1C(=O)[C@@]2(C)[C@H]([C@H](OC(=O)c3ccccc3)[C@]3(O)C[C@H](OC(=O)[C@H](O)[C@@H](NC(=O)C4(C)OC4C)c4ccccc4)C(C)=C1C3(C)C)[C@]1(OC(C)=O)CO[C@@H]1C[C@@H]2O (some centres unmarked) [Ceph-epoxide, cephalomannine epoxide]",GI50,HCT-15,0.603 µM
same,CC50,HCT-15,> 100 µM
same,IC (TGI),HCT-15,> 100 µM
same,GI50,SR; [1],< 0.01 µM
same,CC50,SR,> 100 µM
same,GI50,SN12C; [1],< 0.01 µM
same,CC50,SN12C,> 100 µM
same,IC (TGI),SN12C,> 100 µM
same,GI50,PC-3; [1],0.0112 µM
same,CC50,PC-3,> 100 µM
same,IC (TGI),PC-3,> 100 µM
same,GI50,TK-10; [1],0.0646 µM
same,CC50,TK-10,> 100 µM
same,IC (TGI),TK-10,> 100 µM
same,GI50,SNB-19; [1],0.0257 µM
same,CC50,SNB-19,> 100 µM
same,IC (TGI),SNB-19,> 100 µM
same,GI50,K-562; [1],< 0.01 µM
same,CC50,K-562,> 100 µM
same,IC (TGI),K-562,> 100 µM
same,GI50,HOP-62; [1],0.0245 µM
same,CC50,HOP-62,> 100 µM
same,GI50,OVCAR-5; [1],0.0275 µM
same,CC50,OVCAR-5,> 100 µM
same,IC (TGI),OVCAR-5,4.79 µM
same,GI50,DU-145; [1],0.0263 µM
same,CC50,DU-145,> 100 µM
same,IC (TGI),DU-145,0.145 µM
same,CC50,RPMI-8226,> 100 µM
same,CC50,MALME-3M,> 100 µM
same,IC (TGI),MALME-3M,> 100 µM
same,CC50,OVCAR-8,> 100 µM
same,IC (TGI),OVCAR-8; read-out: Log10 TGI,> 100 µM
same,GI50,MDA-N,< 10 nM
same,CC50,MDA-N; [2],< 0.01 µM
same,IC (TGI),MDA-N; read-out: Log10 TGI,< 0.01 µM
same,GI50,"CCRF-CEM; 48 h, read-out: Log10 GI50 (converted)",< 0.01 µM
same,CC50,CCRF-CEM; [3],> 100 µM
same,IC (TGI),"CCRF-CEM; 48 h, read-out: Log10 TGI",2.51 µM
same,IC (TGI),CCRF-CEM; [4],2.51 µM
same,IC50,CCRF-CEM; [5],< 10 nM
same,CC50,CCRF-CEM; [6],> 100 µM
same,GI50,SF-539; [1],< 0.01 µM
same,CC50,SF-539,0.0407 µM
same,IC (TGI),SF-539; read-out: Log10 TGI,< 0.01 µM
same,GI50,A498; [1],0.316 µM
same,CC50,A498,> 100 µM
same,IC (TGI),A498; read-out: Log10 TGI,> 100 µM
same,GI50,MCF7/ADR-RES; [1],13.8 µM
same,CC50,MCF7/ADR-RES,> 100 µM
same,IC (TGI),MCF7/ADR-RES,61.7 µM
same,GI50,"MDA-MB-435; Homo sapiens, MDA-MB-435, 48 h; read-out: Log10 GI50 (converted)",< 10 nM
same,IC (TGI),"MDA-MB-435; Homo sapiens, MDA-MB-435, 48 h; read-out: Log10 TGI",< 0.01 µM
same,GI50,UACC-62; [1],< 0.01 µM
same,CC50,UACC-62,> 100 µM
same,IC (TGI),UACC-62; read-out: Log10 TGI,> 100 µM
same,GI50,UACC-257; [1],0.0209 µM
same,CC50,UACC-257,> 100 µM
same,IC (TGI),UACC-257,> 100 µM
same,GI50,COLO 205; [1],< 0.01 µM
same,CC50,COLO 205,0.603 µM
same,IC (TGI),COLO 205; read-out: Log10 TGI,0.0269 µM
same,GI50,BT-549,0.01 µM
same,CC50,BT-549,< 100 µM
same,IC (TGI),BT-549,0.0977 µM
same,GI50,KM12; [1],< 0.01 µM
same,GI50,IGROV1; [1],< 0.01 µM
same,CC50,IGROV1,> 100 µM
"CC(=O)O[C@H]1C(=O)[C@@]2(C)[C@H]([C@H](OC(=O)c3ccccc3)[C@]3(O)C[C@H](OC(=O)[C@H](O)[C@@H](NC(=O)c4ccccc4)c4ccccc4)C(C)=C1C3(C)C)[C@]1(OC(C)=O)CO[C@@H]1C[C@@H]2O [Paclitaxel, paclitaxel, reference compound]",GI50,HCT-15,0.427 µM
same,CC50,HCT-15,> 100 µM
same,IC (TGI),HCT-15,> 100 µM
same,CC50,SR,> 100 µM
same,IC (TGI),SR; read-out: Log10 TGI,> 100 µM
same,CC50,SN12C,> 100 µM
same,IC (TGI),SN12C,91.2 µM
same,CC50,PC-3,> 100 µM
same,IC (TGI),PC-3,> 100 µM
same,CC50,TK-10,> 100 µM
same,IC (TGI),TK-10,> 100 µM
same,CC50,SNB-19,> 100 µM
same,IC (TGI),SNB-19,> 100 µM
same,CC50,K-562,> 100 µM
same,IC (TGI),K-562,> 100 µM
same,CC50,HOP-62,79.4 µM
same,IC (TGI),HOP-62; read-out: Log10 TGI,15.8 µM
same,CC50,OVCAR-5,> 100 µM
same,IC (TGI),OVCAR-5,12 µM
same,CC50,DU-145,> 100 µM
same,IC (TGI),DU-145,> 100 µM
same,GI50,RPMI-8226; [1],< 0.1 pM
same,CC50,RPMI-8226,> 100 µM
same,IC (TGI),RPMI-8226; read-out: Log10 TGI,> 100 µM
same,CC50,MALME-3M,77.6 µM
same,IC (TGI),MALME-3M,34.7 µM
same,GI50,OVCAR-8; [1],0.0178 nM
same,CC50,OVCAR-8,> 100 µM
same,GI50,MDA-N,< 0.0001 nM
same,CC50,CCRF-CEM; [3],> 100 µM
same,IC (TGI),"CCRF-CEM; 48 h, read-out: Log10 TGI",> 100 µM
same,IC50,CCRF-CEM; read-out: concentration at which primary growth inhibition occurs (PG +50),0.00245 nM
same,IC (TGI),CCRF-CEM; [4],> 100 µM
same,IC50,CCRF-CEM; [5],< 10 nM
same,CC50,CCRF-CEM; [6],> 100 µM
same,CC50,SF-539,> 100 µM
same,CC50,A498,74.1 µM
same,CC50,MCF7/ADR-RES,> 100 µM
same,IC (TGI),MCF7/ADR-RES,> 100 µM
same,GI50,"MDA-MB-435; Homo sapiens, MDA-MB-435, 48 h, read-out: Log10 GI50 (converted)",< 0.0001 nM
same,CC50,UACC-62,64.6 µM
same,CC50,UACC-257,93.3 µM
same,IC (TGI),UACC-257,30.2 µM
same,CC50,COLO 205,> 38.9 µM
same,GI50,BT-549,0.00049 µM
same,CC50,BT-549,> 100 µM
same,IC (TGI),BT-549,0.479 µM
same,CC50,KM12; [2],> 100 µM
same,IC (TGI),KM12; read-out: Log10 TGI,43.7 µM
same,CC50,IGROV1,> 100 µM
same,IC (TGI),IGROV1; read-out: Log10 TGI,64.6 µM
